Entries after “also recorded” stand apart in the source; their conditions may differ.

The subject of assay [1] is GCV-resistant CMV strain. Nature of the assay: Inhibition of GCV-resistant HCMV. Format: cell-based, human cytomegalovirus. The note with it: FIG. 3. The source says:
FIG. 3A-3D illustrates activity of OZ418 against a GCV-resistant CMV strain. A. Dose response. B. Luciferase. C. HCMV proteins IE1/2, UL44, and pp65 detection. D. Plaque reduction assay.
A GCV-resistant strain was inhibited by OZ418 (FIG. 3).

The test system of assay [2] is HCMV entry. In words: HCMV entry assay. The class given is cell-based. To be noted: FIG. 4A. On the procedure: To determine the time during HCMV replication that OZ418 was active an entry assay was performed (FIG. 4A).
The subject of assay [3] is pp28-luciferase HCMV. In words: Add-on and removal experiments. To be noted: luciferase at 72 hpi. Format: cell-based, human cytomegalovirus. How it is done:
HFFs were infected with the pp28-luciferase HCMV as described above. At 0, 6, 12, 24, 36 and 48 hpi, the media were replaced by the media containing OZ418 or GCV. For time-of-removal studies, media containing the compounds were removed at 0, 6, 12, 24, 36 and 48 hpi, cells were then washed three times with PBS, and drug-free medium was added. The cells were incubated at 37° C., and luciferase assays were carried out at 72 hpi.

Assay [4] concerns pp28-luciferase Towne CMV strain. Nature of the assay: Drug combination with GCV (Bliss model). The class given is cell-based, human cytomegalovirus. The note with it: FIGS. 4D and E. How it is done:
Drug combinations were performed as previously reported (33). Briefly, 2×10^6 HFFs were seeded in a 96-well plate and infected with the pp28-luciferase Towne CMV strain at MOI=1. First, a dose response curve was generated for each drug individually to determine its EC50. […] Luciferase activity of the combination and each drug individually was quantified at 72 hpi. The Bliss model was used to calculate the effect of each drug combination on pp28-luciferase activity. In this model, drug combination represents the product of two probabilistically independent events as described in the following equation (23):
[formula] Where D is the drug concentration, m is the slope, and EC50 is the effective concentration resulting in 50% virus inhibition. The combined effect of two inhibitors (FU, fractional unaffected) is computed as the product of individual effects of the two inhibitors, FU1 and FU2. If the ratio of observed fold inhibition divided by the expected fold inhibition is greater than 1, the compounds are synergistic. If the ratio is less than 1, the combination is considered antagonistic, and if it equals to 1 the combination is additive.

In assay [5] the test system is non-infected HFFs. Nature of the assay: Cell cycle progression by flow cytometry, non-infected HFFs. The class given is cell-based, human. The note with it: non-infected cells, 30 μM, 24 h and 72 h. How it is done: To identify the cell cycle stage affected by OZ418, non-infected HFFs were serum starved for 72 h and then released in DMEM with 0% FBS (control for G0 arrest), 10% FBS (control for cell cycle progression), or 10% FBS plus OZ418 (30 μM), AS (30 μM), or GCV (30 μM) for 24 h and 72 h, respectively. To determine the effects of OZ418 on cell cycle progression in infected HFFs, 1.0×10^6 cells were serum starved for 72 h, and then infected with HCMV Towne strain (MOI=1) followed by treatment with OZ418 (30 μM), AS (30 μM), or GCV (5 μM) for 24 h and 72 h, respectively. The cells were collected by treatment with trypsin and then washed with PBS. The collected cells were fixed in 5 ml of cold 70% ethanol overnight at 4° C. and resuspended in […] of staining buffer (50 μg/ml propidium iodide [Sigma-Aldrich] and 0.2 mg/ml RNase A in PBS) for 45 min at 37° C. in 5% CO2. The samples were analyzed on an LSR II flow cytometer (BD Biosciences, San Jose, Calif.), and at least 10,000 cells were counted for each sample. Data analysis was performed using FlowJo software (Tree Star, USA). The percentage of cells in G1/S/G2-M is shown in each condition.

In assay [6] the test system is CDK 1, 2, 4, pRb and E2F1 expression. In words: Immunoblot of CDKs, pRb and E2F1, HCMV-infected HFFs. Format: cell-based, human. On the procedure: (§1) Cell lysates were quantified for total protein content using Pierce bicinchoninic acid (BCA) protein assay kit (Thermo-Fisher Scientific, Waltham, Mass.). Equivalent amounts of protein were mixed with an equal volume of sample buffer (125 mM Tris-HCl [pH 6.8], 4% SDS 20% glycerol, 5% β-mercaptoethanol) and boiled at 100° C. for 10 min. Denatured proteins were resolved in Tris-glycine polyacrylamide gels (10% to 12%) and transferred to polyvinylidene difluoride membranes (Bio-Rad Laboratories, Hercules, Calif.) by electroblotting. Membranes were incubated in blocking solution (5% nonfat dry milk/BSA and 0.1% Tween 20 in PBS [PBST]) for 1 h, washed three times with PBST, and incubated primary antibodies diluted in 5% milk or BSA (for pRb) at 4° C. overnight. The membranes were washed with PBST, followed by incubation with horseradish peroxidase (HRP)-conjugated secondary antibodies in 5% milk/BSA for 1 h at room temperature. After three washing steps with PBST, protein bands were visualized by chemiluminescence using SuperSignal West Pico reagent (Pierce Chemical, Rockford, Ill.). […]

The test system of assay [7] is CDKs, pRB and E2F1 expression. In words: Immunoblot of CDKs, pRb and E2F1, non-infected HFFs. Format: cell-based, human. On the procedure: as §1
For orientation: Immunoblotting shows a protein as a band on a membrane.

On to `O=C(O)COc1ccc([C@H]2CC[C@]3(CC2)OO[C@]2(O3)C3CC4CC(C3)CC2C4)cc1` [OZ418], for which the “Inhibition of GCV-resistant strain” value in assay [1] is recorded as “inhibited”. Further, the “Inhibition of HCMV entry” value in assay [2] was “did not inhibit HCMV entry”. In assay [3], the “Timing of anti-HCMV activity” value is listed as “early-late inhibitor of HCMV”. The “Combination effect with GCV against HCMV” value in assay [4] was “synergistic activity with GCV”. The Cell cycle progression result in assay [5] was “did not influence cell cycle progression”. Besides, in assay [6], the “Expression level of CDKs, pRb and E2F1” value was “reduced”. In addition, the “Expression of CDKs, pRB and E2F1” value in assay [7] was “unchanged; also recorded: did not decrease the expression of pRb or any of the tested CDKs”.

For the origin of these results see US11246854B2, “Ozonides for treating or preventing virus infections” (THE JOHNS HOPKINS UNIVERSITY, priority 2017, dated 2022).
